Experimental data as given in patent publication US20040029823A1, “Antisense oligonucleotide compositions and methods for the modulation of JNK proteins” (priority 1997, published 2004).

Legend:
[1] = tested on: TNFa-induced JNK activity; test: TNFa-induced JNK activity in HUVEC (GST-c-Jun phosphorylation); format: cell-based, human; settings: 100 nM oligonucleotide, compared to a control oligonucleotide
MDA-MB-231 tumors = test: MDA-MB-231 human breast adenocarcinoma tumors in nude mice; format: in vivo; settings: 25 mg/kg intravenous once daily
Excerpt: Approximately 5×10^6 breast adenocarcinoma cells (cell line MDA-MB-231; American Type Culture Collection, Richmond, Va., No. ATCC HTB-26) were implanted subcutaneously in the right inner thigh of nude mice (n=6 for each of three sets of mice). Oligonucleotides ISIS 15346 (JNK1, SEQ ID NO: 16) and 15353 (JNK2, SEQ ID NO: 31) were suspended in saline and administered once daily to two sets of mice on the first day the tumor volume was about […]. A saline-only (0.9% NaCl) solution was given to a third set of animals as a control. Oligonucleotides were given by intravenous injection at a dosage of 25 mg/kg. Tumor size was measured and tumor volume was calculated on days 12, 19, 26 and 33 following tumor cell inoculation.

HUVEC = test: Apoptosis in HUVEC (percent hypodiploid cells, flow cytometry); format: cell-based, human; settings: HUVEC

G^ST^SC^SC^SG^SG^SG^SC^SC^SA^SG^SG^SC^SC^SA^SA^SA^SG^ST^SC (antisense GTCCGGGCCAGGCCAAAGTC; DNA, all phosphorothioate, methylation of C not given here) [ISIS 15353, JNK2 gapmer: P═S, 2′-MOE wings; P═S, 2-deoxy core]
inhibition of TNFa-induced JNK activity [1]: ~55%
Mean Tumor Volume (MDA-MB-231 tumors; Day 12 after tumor cell inoculation): 0.122 cm^3
Mean Tumor Volume (MDA-MB-231 tumors; Day 19): 0.230 cm^3
Mean Tumor Volume (MDA-MB-231 tumors; Day 26): 0.358 cm^3
Mean Tumor Volume (MDA-MB-231 tumors; Day 33): 0.762 cm^3
percent hypodiploid cells (a measure of apoptosis) (HUVEC; Oligo + Cyclohexamide): 27%
percent hypodiploid cells (a measure of apoptosis) (HUVEC; Oligo + TNFa (10 ng/ml)): 32%
percent hypodiploid cells (a measure of apoptosis) (HUVEC; Oligo + z-VAD.fmk): 17%
percent hypodiploid cells (a measure of apoptosis) (HUVEC; Oligo alone): 23%
